Assays:
[1] = Stability of multibiotic agents in Simulated Intestinal Fluid (SIF); format: in vitro ADME; details: simulated intestinal fluid pH 6.7 with pancreatin, 37° C., 1 μM
How it was run: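 Compounds at 1 μM final (from 1 mM DMSO stock) incubated at 37 °C with agitation in fresh SIF (FaSSIF plus pancreatin in pH 6.7 phosphate buffer). Aliquots taken at T0 and regular intervals, quenched with 1 volume acetonitrile. Degradation rate determined by LC/MS.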

[2] = Stability of multibiotic agents in Simulated Gastric Fluid (SGF); format: in vitro ADME; details: simulated gastric fluid pH 1.6 with pepsin, 37° C., 1 μM
How it was run: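 Compounds were incubated at 1 μM final at 37 °C in simulated gastric fluid containing NaCl, pH 1.6, with FaSSIF powder and 0.1 mg/mL pepsin. Aliquots were taken at T0 and at regular intervals and quenched with acetonitrile. Degradation rates were determined by LC/MS.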

Row | Compound | Assay 3 (SIF) (% @ Remaining 4 hours) [1] | Assay 2 (SGF) (% Remaining @ 4 hours) [2]
1 | CCC(=O)OC1O[C@@H](C)[C@@H](OC(=O)CC)[C@@H](OC(=O)CC)[C@@H]1OC(=O)CC (stereo partly drawn) [Example 157, [(2S,3R,4R,5S)-2-methyl-4,5,6-tri(propanoyloxy)tetrahydropyran-3-yl] propanoate] | A (<25% of the tested compound remaining) | C (>75% of the tested compound remaining)
2 | CCCC(=O)OC[C@H]1OC(OC(=O)CCC)[C@H](OC(=O)CCC)[C@@H](OC(=O)CCC)[C@@H]1OC(=O)CCC (stereo partly drawn) [Example 160, [(2R,3R,4S,5R)-3,4,5,6-tetra(butanoyloxy)tetrahydropyran-2-yl]methyl butanoate] | A (<25% of the tested compound remaining) | C (>75% of the tested compound remaining)
3 | CCCC(=O)OC[C@H]1OC(O)[C@H](OC(=O)CCC)[C@@H](OC(=O)CCC)[C@@H]1OC(=O)CCC (stereo partly drawn) [Example 161, [(2R,3R,4S,5R)-3,4,5-tri(butanoyloxy)-6-hydroxy-tetrahydropyran-2-yl]methyl butanoate] | A (<25% of the tested compound remaining) | C (>75% of the tested compound remaining)
4 | CC(=O)OCC1(OC(C)=O)OC[C@@H](OC(C)=O)[C@H](OC(C)=O)[C@@H]1OC(C)=O (stereo partly drawn) [Example 162, [(3S,4S,5R)-2,3,4,5-tetraacetoxytetrahydropyran-2-yl]methyl acetate] | B (25-75% of the tested compound remaining) | C (>75% of the tested compound remaining)
5 | CCCC(=O)OCC1(OC(=O)CCC)OC[C@@H](OC(=O)CCC)[C@H](OC(=O)CCC)[C@@H]1OC(=O)CCC (stereo partly drawn) [Example 163, [(3S,4S,5R)-2,3,4,5-tetra(butanoyloxy)tetrahydropyran-2-yl]methyl butanoate] | A (<25% of the tested compound remaining) | B (25-75% of the tested compound remaining)
6 | CCCC(=O)OC[C@@H](OC(=O)CCC)[C@@H](OC(=O)CCC)[C@H](OC(=O)CCC)[C@@H](OC(=O)CCC)C(=O)Oc1ccc(/C=C/c2cc(OC(=O)[C@H](OC(=O)CCC)[C@@H](OC(=O)CCC)[C@H](OC(=O)CCC)[C@@H](COC(=O)CCC)OC(=O)CCC)cc(OC(=O)[C@H](OC(=O)CCC)[C@@H](OC(=O)CCC)[C@H](OC(=O)CCC)[C@@H](COC(=O)CCC)OC(=O)CCC)c2)cc1 [Example 164, [4-[(E)-2-[3,5-bis[[(2R,3S,4R,5R)-2,3,4,5,6-penta(butanoyloxy)hexanoyl]oxy]phenyl]vinyl]phenyl] (2R,3S,4R,5R)-2,3,4,5,6-penta(butanoyloxy)hexanoate] | B (25-75% of the tested compound remaining) | B (25-75% of the tested compound remaining)
7 | CCC(=O)OC1OC[C@@H](OC(=O)CC)[C@H](OC(=O)CC)[C@H]1OC(=O)CC (stereo partly drawn) [Example 165, [(3R,4S,5R)-4,5,6-tri(propanoyloxy)tetrahydropyran-3-yl] propanoate] | A (<25% of the tested compound remaining) | C (>75% of the tested compound remaining)
8 | CCC(=O)O[C@@H]1[C@@H](OC(=O)CC)[C@H](OC(=O)CC)CO[C@H]1O [Example 166, [(3R,4S,5R,6R)-6-hydroxy-4,5-di(propanoyloxy)tetrahydropyran-3-yl] propanoate] | B (25-75% of the tested compound remaining) | C (>75% of the tested compound remaining)
9 | CC(=O)Oc1ccc(-c2oc3cc(OC(C)=O)cc(OC(C)=O)c3c(=O)c2OC(C)=O)cc1 [Example 169, [4-(3,5,7-triacetoxy-4-oxo-chromen-2-yl)phenyl] acetate] | A (<25% of the tested compound remaining) | C (>75% of the tested compound remaining)
